Assay [1] has as its system TGFb1-treated immortalized HSC. As to the kind of experiment: Profibrogenic gene expression in immortalized HSC with recombinant TGF-β treatment (qRT-PCR). Format: cell-based, human. Particulars: for Collagen-1 expression / TGF-β expression / TIMP-1 expression / αSMA expression: compounds 72 hours, then TGF-β (3 ng/ml) 48 hours. The text has this:
The AML12 (mouse hepatocyte) cells were obtained from the BCRC (Bioresource Collection and Research Center) and cultured in Dulbecco's modified Eagle media (DMEM, Gibco by Invitrogen) with 1% antibiotic antimycotic (Gibco by Invitrogen) and 15% fetal bovine serum (Gibco by Invitrogen). The human Hepatic Stellate Cell, HSC cell line was obtained from the ScienCell Research Laboratory (USA) and cultured in complete medium, Stellate Cell Medium (ScienCell Research Laboratory) with 2% fetal bovine serum (ScienCell Research Laboratory), 1% stellate cell growth supplement (ScienCell Research Laboratory) and 1% penicillin/streptomycin solution (ScienCell Research Laboratory). […] For primary hepatic stellate cell isolation, C57BL/6 mice were anesthetized by intraperitoneal injection of ketamine and xylazine. […] Mouse livers were perfused in situ with 0.5 mM EGTA containing calcium-free salt solution (8 ml/min, 37° C. for 5 minutes), followed by perfusion with 2-step 0.05% collagenase D and pronase containing buffer (Roche Molecular Biochemicals, Indianapolis, Ind.) for 5 and 10 minutes, respectively. The harvested liver was minced gently on a Petri dish and additional incubation with protease containing buffer at 37° C. for 25 minutes. Then, the liver was filtered with 70 μm cell strainer. Cells were centrifuged and collected followed by 8.2% Nycodenz (Accurate Chemical and Scientific Corp.). The cell lines were cultured at 37° C. in a humidified atmosphere containing 5% CO2.
Exponentially growing cells were harvested and seeded in a 6-well microtiter plate. Each well of cells were collected to eppendrof in 1 mL of TRIzol buffer (Invitrogen, Carlsbad, Calif., USA), and then mixed with 0.5 mL chloroform/isoamyl alcohol (24:1), eppendrofs were centrifuged at 12,000×g for 10 min at 4° C. The supernatant was transferred to a fresh tube, and isopropanol was added, mix well and stored at −80° C. overnight. The reaction mixture was centrifuged at 12,000×g for 30 min at 4° C. to produce a rude RNA pallet, the pellet was washed with 70% ethanol and air-dried. The concentrations of total RNA were measured by absorbance at 260 nm using a NanoDrop ND-1000 (NanoDrop, USA).
(§1) Reverse transcription reaction was performed using a commercially available set of High Capacity RNA-to-cDNA Kit (Applied Biosystems, USA). cDNA was prepared from 2 μg of total RNA per 20 μl reaction, according to the manufacturer's instructions—37° C. for 60 minutes, 95° C. for 5 minutes, and hold at 4° C. The resulting cDNA was to a final concentration of 100 ng/μl and constituted a matrix in further experiments.
Amplification and detection the gene expression by real-time PCR were performed using StepOne plus Real-time PCR System (Applied Biosystems, USA). Samples were assayed in a 10 μl reaction mixture containing 2 μl of template DNA, 5 μl of 2× TaqMan PCR Master Mix (Applied Biosystems, Life Technologies, Foster City, Calif., USA), 0.5 μl of 20× assay mix containing probe, forward and reverse primer (Applied Biosystems, Life Technologies, Foster City, Calif., USA), whereby qPCR targets with the following information were used: (a) α-SMA, Assay ID Rn01759928_g1, (b) TIMP-1, Assay ID Rn00587558_m1, (c) TGF-β1, Assay ID Rn00572010_m1, (d) Collagen I, Assay ID Rn 01463838_m1, (e) GAPDH, Assay ID Rn1462662_g1. To control variation in mRNA concentration, all results were normalized to the housekeeping gene, GAPDH. Relative quantitation was performed using the comparative ΔΔCt method according to the manufacturer's instructions. The cycling conditions used were as follows: 50° C. for 2 min, 95° C. for 10 min followed by 40 cycles of 95° C. for 15 s and 60° C. for 1 min each. […]
(Real-time PCR tracks product formation cycle by cycle.)

Assay [2] concerns Dermal fibroblast, CG1639 cells. As to the kind of experiment: Profibrogenic gene expression in dermal fibroblast cell line (qRT-PCR). The class given is cell-based. Particulars: two concentrations, 72 hrs.
Excerpt: The dermal fibroblast cell line CG1639 was obtained from the BCRC (Bioresource Collection and Research Center) and cultured in Dulbecco's modified Eagle media (DMEM, Gibco by Invitrogen) with 1% antibiotic antimycotic (Gibco by Invitrogen) and 15% fetal bovine serum (Gibco by Invitrogen). The fetal rat skin keratinocyte, FRSK cell line was obtained from the Japan HSRRB (Health Science Research Resources Bank) and cultured in Eagle's minimal essential media (MEM, Gibco by Invitrogen) supplemented with 10% fetal bovine serum (FBS) (Gibco by Invitrogen) and 1% antibiotic antimycotic (Gibco by Invitrogen). B16F10 cells, a murine melanoma cell line, were purchased from American Type Culture Collection (ATCC, Rockville, Md., USA) and was cultured in Eagle's Minimum Essential Medium (MEM; Sigma, St. Louis, Mo.) supplemented with 10% fetal bovine serum (FBS; HyClone Lab. Inc., Logan, Utah), 0.02% antibiotic-antimycotic liquid (penicillin, 10 000 U mL^−1; streptomycin, 10 000 μg mL^−1 and amphotericin B, 25 μg mL^−1; Invitrogen, Carlsbad, Calif.).
as §1
Amplification and detection the gene expression by real-time PCR were performed using StepOne plus Real-time PCR System (Applied Biosystems, USA). Samples were assayed in a 10 μl reaction mixture containing 2 μl of template DNA, 5 μl of 2× TaqMan PCR Master Mix (Applied Biosystems, Life Technologies, Foster City, Calif., USA), 0.5 μl of 20× assay mix containing probe, forward and reverse primer (Applied Biosystems, Life Technologies, Foster City, Calif., USA), whereby qPCR targets with the following information were used: (a) α-SMA, Assay ID Rn01759928_g1, (b) TIMP-1, Assay ID Rn00587558_m1, (c) TGF-β1, Assay ID Rn00572010_m1, (d) Collagen I, Assay ID Rn 01463838_m1, (e) GAPDH, Assay ID Rn1462662_g1. To control variation in mRNA concentration, all results were normalized to the housekeeping gene, GAPDH. Relative quantitation was performed using the comparative ΔΔCt method according to the manufacturer's instructions. The cycling conditions used were as follows: 50° C. for 2 min, 95° C. for 10 min followed by 40 cycles of 95° C. for 15 s and 60° C. for 1 min each.
Dermal fibroblast, CG1639 cells, were exposed to Hepasim compounds by two different concentrations for 72 hrs. Then, RNA was extracted and subsequent real-time quantitative PCR Collagen-1, TGF-β1, α-SMA and TIMP-1 mRNA were measured.

As to `CC(C)=CCOc1ccc(C2=C(CC(C)C)C(=O)N(O)C2=O)cc1` [Compound C, 3-isobutyl-4-[4-(3-methyl-2-butenyloxy)phenyl]-1H-pyrrol-1-ol-2,5-dione], in assay [1], the “anti-fibrosis effect on immortalized HSC in response to TGF-β (summary)” value is given as “anti-fibrosis effect”, the Collagen-1 expression result is “dose-dependent effect”, the TGF-β expression entry is “dose-dependent effect” and the TIMP-1 expression result was “dose-dependent effect”. The αSMA expression result in assay [1] is “dose-dependent effect”. In assay [2], the “All-4 profibrogenic gene expression (Collagen-1, TGF-β1, α-SMA, TIMP-1)” value was “down-regulated significantly” and the “dose dependence of profibrogenic gene down-regulation” value is “dose-dependent effect”.
With `CC(C)=CCOc1ccc(C2=C(CC(C)C)C(=O)NC2=O)cc1` [Compound B, 3-isobutyl-4-[4-(3-methyl-2-butenyloxy)phenyl]-1H-pyrrol-2,5-dione], in assay [1], the “anti-fibrosis effect on immortalized HSC in response to TGF-β (summary)” value is on record as “anti-fibrosis effect”, the Collagen-1 expression entry was “dose-dependent effect”, the TGF-β expression result is reported as “dose-dependent effect” and the TIMP-1 expression entry is recorded as “dose-dependent effect”. For the same compound, the αSMA expression result in assay [1] is given as “dose-dependent effect”. Moreover, in assay [2], the “All-4 profibrogenic gene expression (Collagen-1, TGF-β1, α-SMA, TIMP-1)” value is on record as “down-regulated significantly” and the “dose dependence of profibrogenic gene down-regulation” value is “dose-dependent effect”.
